From patent publication US10517952B2, “Nucleophile-triggered degradable materials and methods of making and using the same” (GEORGIA TECH RESEARCH CORPORATION, priority 2014, dated 2019)

How the values were obtained:
[1] = Equilibrium swelling, gel fraction and Mc (Flory-Rehner) of PEG-OND hydrogels; format: physicochemical; conditions: for Mc (apparent molecular weight between elastic crosslinks): calculated with the Flory-Rehner equation from swelling results; for Gel Fraction: mass of dry residue post-swelling/input mass of OND and 4-PEG-SH; for Equilibrium Swelling Ratio: mass post-swelling/mass pre-swelling, deionized water, 4° C., 24 hours, n = 3 gels
Description: The swelling of the PEG-OND hydrogels in deionized water was measured at 4° C. to prevent significant fragmentation during the experiment. […] An independent experiment measuring soluble fraction thiol content yielded results complementing those obtained gravimetrically (Table S3, and related discussion below). With the knowledge that small molecules can readily permeate swollen PEG-OND hydrogels (see below), detecting and modifying residual thiols in gels prepared from divalent linkers 7a and 8 by swelling in the presence of a fluorogenic OND derivative was attempted (FIG. 15, and related discussion below).
200 μL gels were prepared in pH 7.4 100 mM phosphate buffered saline containing 7% DMSO with 3.5 wt % 4-PEG-SH and the corresponding bis-, tris-, and tetra-ONDs to provide a 1:1 thiol to electrophile ratio, and allowed to cure for 20 minutes at room temperature. The mass of the gels after curing was recorded (Meq) before suspending in 5.5 mL of water. The hydrogels were stored at 4° C. during swelling to prevent significant degradation of the network during the experiment. The increase in mass of the gels was monitored periodically by decanting and blotting the gel gently with a kimwipe to remove excess water before weighing. After 24 hours swelling, when swelling had stabilized, the mass of the gel was recorded (Meq). The equilibrium mass swelling ratio was then determined using the following relationship:
After weighing equilibrium-swelled gels to determine equilibrium mass swelling ratio, the gels were freeze-dried and the residual mass was weighed (Mres). It is expected that buffer salts present in the sample when it was formed were removed by the multiple changes of swelling solvent (pure water). The mass of the remaining residue was compared to the input mass (Min) of 4-PEG-SH macromer and OND-based linker. The ratio of the residual mass and the input mass provides the fraction of material by mass incorporated into the hydrogel network (gel fraction), as shown in the following equation: […]
The apparent molecular weight between elastically-productive crosslinks (Mc) was determined from equilibrium swelling data, collected as described in section VII.1 and applying a modified form of the Flory-Rehner equation for networks formed under dilute conditions:
[formula] where Mn is the number average molecular weight for the polymeric macromer (10,000 g/mol), v is the specific volume of the polymer ([…] for PEG) V1 is the molar volume of solvent used for swelling ([…] for water), χ is the polymer-interaction parameter (0.43 for PEG-H2O and assumed constant for the described experiments). V2, and V2, are the volume fraction of polymer in the equilibrium swollen gel and the relaxed gel after curing, respectively, and are calculated as follows:
[formula] where qw is the weight swelling ratio after equilibrium swelling, qF is the weight swelling ratio after curing, ρp is the density of the polymer (1.12 g/cm^3 for PEG), ρwater=ρcure solvent is the density of swelling solvent and solvent during gel formation (1.00 g/cm^3 for water). The weight swelling ratios qw and qF are determined from data gathered in equilibrium swelling experiments using the following relationships:
[formula] where ms is the mass of the gel after equilibrium swelling, mc is the mass of the gel after curing, and md is the mass of the dried gel, or input mass of polymer and crosslinkers.
Using the formulae above, masses of hydrogel samples recorded after equilibrium swelling, curing, and drying were applied to estimate the apparent molecular weight between crosslinks, which are summarized in Table 1 of the main text. The experimentally observed Mc values for gels formed using divalent OND linkers was lower than theoretical ideal value Mc,ideal. This can be explained by the fact that the Mc,ideal values calculated for these gels (entries 1-5 of Table S1) are greater than the entanglement molecular weight for polyethylene glycol (˜4,400 g/mol). […]

[2] = Release of entrained cargo from PEG-OND hydrogels; format: physicochemical
Description: Finally, the diffusion of entrained, rather than covalently anchored, cargos of different sizes out of OND hydrogels of differing stabilities was measured. This was done with a small molecule (carboxyfluorescein), a globular protein (fluorescein-labeled bovine serum albumin, BSA), and a 30-nm protein nanoparticle (fluorescein-labeled bacteriophage Qb virus-like particle). The first and last species have no available thiol groups; the second was reacted with N-ethylmaleimide before gelation to cap cysteine-34 and avoid tethering of the protein cargo to the hydrogel network. Hydrogels derived from 4-PEG-SH and 7a, 7b, or 8 were formed in the presence of each cargo; the speed of this reaction made it highly unlikely that OND connectors were addressed by protein amine groups under these conditions.
Three sets of three 60 μL gels were prepared using linkers 7a, 7b, and 8, respectively. The first set contained 1 mM small molecule probe 5/6-carboxyfluorescein, while the second and third sets contained FITC labeled BSA and Qβ virus-like particle, respectively. The gels were allowed to set for 30 minutes at room temperature before dilution with 3 mL of pH 7.4 100 mM phosphate buffered saline. The samples were incubated at 37° C. and the increase in absorbance of the supernatant at 497 nm was monitored. The fraction of released dye was plotted against incubation time. Least-squares kinetic fitting to a first-order rate law was performed for release profiles obtained for carboxyfluorescein cargo, and for the release of BSA from non-degradable PEG-EONB (8) hydrogel (Solver plug-in, Microsoft Excel).

Fraction of BSA tethered to the network / not freely diffusing from the gel ([2]; FITC-BSA with ˜0.4 accessible thiols per protein) [%]	Release of entrained BSA from the gel compared with more stable matrices ([2]; N-ethylmaleimide-capped FITC-BSA, pH 7.4, 37° C.)	Structure (SMILES)	Mc (apparent molecular weight between elastic crosslinks) [1] [g/mol]	Gel Fraction [1]	Equilibrium Swelling Ratio [1]	melting point [°C]	Release of entrained Qβ virus-like particles from the gel ([2]; pH 7.4, 37° C.)
~20	markedly faster	COC(=O)C1=C(C(=O)OC)C2(CNC(=O)CCCC(=O)NCC34C=CC(O3)C(C(=O)OC)=C4C(=O)OC)C=CC1O2 [Linker 7a, Tetramethyl 1,1′-((glutaroylbis(azanediyl))bis(methylene))bis(7-oxabicyclo[2.2.1]hepta-2,5-diene-2,3-dicarboxylate)]	4080 ± 57	0.91 ± 0.03	1.7 ± 0.04	163 to 167	
		COC(=O)C1=C(C(=O)OC)C2(CNC(=O)CCCC(=O)NCC34OC(C(C(=O)OC)=C3C(=O)OC)C3OC34)OC1C1OC12 (centres unmarked) [Linker 8, Tetramethyl 1,1′-((glutaroylbis(azanediyl))bis(methylene))bis(3,8-dioxatricyclo[3.2.1.0^2,4]oct-6-ene-6,7-dicarboxylate)]	3900 ± 93	0.97 ± 0.01	1.60 ± 0.10	125 to 130	not released
